Test results: ChEMBL document CHEMBL1123995, “N-sulfonyl imidates as a novel prodrug form for an ester function or a sulfonamide group” (J Med Chem, 1988)

Key:
Format in all cases: ADME
[1] = Half-life of hydrolysis at pH 7.4 at 37 degree C; conditions: buffer
[2] = Half life of 80% diluted human plasma with 0.01 M phosphate buffer of pH 7.4; conditions: 80% human plasma
[3] = Half-life of hydrolysis at pH 6.0 at 37 degree C; conditions: buffer
[4] = Half-life of hydrolysis at pH 4.0 at 37 degree C; conditions: buffer

half-life [1] | half-life [2] | half-life [3] | half-life [4] | SMILES
1.38 h | 0.135 h | 2.5 h |  | CO/C(C)=N\S(=O)(=O)c1ccc(C)cc1
2.42 h | 0.533 h |  |  | CCC/C(=N/S(=O)(=O)c1ccc(C)cc1)OC
26.3 h | 1.3 h |  |  | CCOC(=NS(=O)(=O)c1ccc(C)cc1)OCC
1.8 h | 0.4 h |  |  | CCO/C(CC)=N\S(=O)(=O)c1ccc(C)cc1
4.25 h | 0.533 h | 14.5 h |  | COC(=NS(=O)(=O)c1ccc(C)cc1)OC
2.4 h | 0.107 h | 2.92 h |  | CCO/C(C)=N\S(=O)(=O)c1ccc(C)cc1

The next lines start with the compound.

SMILES | half-life [1] | half-life [2] | half-life [3] | half-life [4]
CCO/C=N\S(=O)(=O)c1ccc(C)cc1 | 0.0133 h | < 0.0167 h | 0.02 h | 
CCO/C(=N\S(=O)(=O)c1ccc(C)cc1)c1ccccc1 | 2.92 h | 0.333 h | 3.67 h | 
CCCC/C(=N/S(=O)(=O)c1ccc(C)cc1)OC | 2.67 h | 0.467 h |  | 
CCCO/C(=N\S(=O)(=O)c1ccc(C)cc1)c1ccccc1 | 2.92 h | 0.333 h |  | 
Cc1ccc(S(=O)(=O)/N=C(\OCC(=O)N(C)C)c2ccccc2)cc1 | 2.4 h | 0.0333 h |  | 
Cc1ccc(S(=O)(=O)/N=C(\OCCN(C)C)c2ccccc2)cc1.Cl | 0.045 h | < 0.0167 h |  | 0.583 h
Cc1ccc(S(=O)(=O)/N=C(\OCCN2CCCCC2)c2ccccc2)cc1.Cl | 0.0217 h | < 0.0167 h |  | 0.583 h
Cc1ccc(S(=O)(=O)/N=C(\OCCCN(C)C)c2ccccc2)cc1.Cl | 0.183 h | 0.0667 h |  | 0.883 h
Cc1ccc(S(=O)(=O)/N=C(\OC2CCN(C)CC2)c2ccccc2)cc1.Cl | 1.48 h | 0.6 h | 1.5 h | 
CO/C(=N\S(=O)(=O)c1ccc(C)cc1)c1ccccc1 | 1.9 h | 0.117 h |  | 
Cc1ccc(S(=O)(=O)/N=C(\OCCN2CCCC2=O)c2ccccc2)cc1 | 1.25 h | 0.08 h |  | 
Cc1ccc(S(=O)(=O)/N=C(\OC(C)C)c2ccccc2)cc1 | 17.4 h | 3.25 h | 23 h | 
Cc1ccc(S(=O)(=O)/N=C(\Oc2ccccc2C(=O)OCC(=O)N(C)C)c2ccccc2)cc1 | 1.52 h | 0.01 h | 1.55 h | 
